The target in this experiment is T1, human GLP-1R (Homo sapiens, UniProt P43220).
T1 construct: expressed in transfected cells; host or cells: PEAK RAPID-derived Gα15-trans48 LD stably expressing cells (PRG48), transiently transfected with Lipofectamine 2000
The experiment in a line: GLP-1 receptor in vitro calcium assay (intracellular free calcium concentration change induced via GLP-1 receptor). The format is cell-based. Particulars: for EC50: PRG48 cells transfected with human GLP-1R, compound added with 250 pM GLP-1, Ca2+ response ΔF/F, read-out: Ca EC50 value; for GLP-1 receptor action enhancing activity (vs BETP): intensity compared to BETP, activity of BETP as 1. On the procedure:
The supernatant was removed by centrifugation (1,200 rpm, 3 min), and the cells were suspended at 4×10^6 cells/mL in 5% FBS DMEM/Ham's F-12. 1.0 mL thereof was seeded in a 15 cm dish and cultured (37° C., 5% CO2) overnight. The next day, the medium of the cultured PRG48 cells was replaced with 5% FBS DMEM/Ham's F-12 medium (30 mL), human GLP-1R gene mixture solution (GLP-1R/pc.DNA3.1(+) 60 μg) prepared using 6.0 mL of Opti-MEM (invitrogen) and 120 μL of Lipofectamin 2000 (invitrogen) was slowly added to the cells, and cultured (37° C., 5% CO2) for 6 hr to introduce the gene. […] The cells were counted, suspended at 0.5×10^6 cells/mL in 5% FBS DMEM/Ham's F-12 medium, and seeded in each well of D-Lysine coat 96 well plate (BD Bioscience) at 7.0×10^4 cells. After static adhesion at room temperature for 1 hr, the cells were cultured overnight (37° C., 5% CO2). The medium in the Cultured 96 well was entirely discarded, 150 μL of intracellular calcium measurement staining solution Calcium assay kit Express (Molecular Device) diluted 80-fold with Assay buffer (20 mM HEPES, 146 mM NaCl, 1 mM MgSO4, 1.39 mM glucose, 1 mM CaCl2, 2.5 mM Probenecid, 0.05% Casein Enzymatic Hydrolysate) was added, and the mixture was stood at 37° C. for 30 min, and then at room temperature for 45 min to perform staining. After staining, 250 pM GLP-1 and the compound were added and Ca^2+ response was observed by using FDSSμCELL (Hamamatsu Photonics K.K.). Each evaluation compound was dissolved in DMSO, further diluted with Assay buffer and used.
For evaluation, the fluorescence values (Ex480:Em540) before and after addition were measured, and changes in the intracellular free calcium concentration produced via GLP-1R receptor by the addition were quantitatively examined. For the measurement and analysis of the fluorescence values, a soft (FDSS7000EX) attached to the FDSSμCELL was used, and ΔF/F value ((maximum fluorescence value after stimulation−minimum fluorescence value after stimulation)/fluorescence value before stimulation) was calculated. Using the obtained ΔF/F values, EC50 value was calculated by Prism5.

The values that follow come from patent US20190022039A1, “COMPOUND HAVING ENHANCING ACTIVITY FOR GLUCAGON-LIKE PEPTIDE-1 RECEPTOR ACTIONS” (AJINOMOTO CO., INC., priority 2016, published 2019).

T1 sequence (P43220 24-463): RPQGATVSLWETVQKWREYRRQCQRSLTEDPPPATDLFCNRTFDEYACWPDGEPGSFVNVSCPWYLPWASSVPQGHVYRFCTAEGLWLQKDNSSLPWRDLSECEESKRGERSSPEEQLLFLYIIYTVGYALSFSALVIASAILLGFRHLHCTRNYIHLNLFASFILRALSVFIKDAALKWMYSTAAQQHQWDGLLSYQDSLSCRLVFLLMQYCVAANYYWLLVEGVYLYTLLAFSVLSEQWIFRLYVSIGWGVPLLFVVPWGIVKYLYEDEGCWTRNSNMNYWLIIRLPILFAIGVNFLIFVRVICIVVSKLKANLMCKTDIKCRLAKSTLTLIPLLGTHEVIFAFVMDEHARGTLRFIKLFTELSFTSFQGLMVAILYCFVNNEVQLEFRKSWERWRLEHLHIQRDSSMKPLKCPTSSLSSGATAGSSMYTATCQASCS

Regarding `CC(C)CCCC(C)NC(=O)[C@@H](Cc1cccnc1)NC(=O)Nc1ccc(NS(=O)(=O)c2ccc(C(C)(C)C)cc2)cc1` (some centres unmarked) [Compound 102], the EC50 is 130 nM and the “GLP-1 receptor action enhancing activity (vs BETP)” value came out at 193.

Consider `CC(C)CCCC(C)NC(=O)[C@@H](Cc1cccnc1)NC(=O)Nc1cccc(NS(=O)(=O)c2ccc(C(C)(C)C)cc2)c1` (some centres unmarked) [Compound 103], for which the EC50 is 130 nM and the “GLP-1 receptor action enhancing activity (vs BETP)” value was 195.

`Cc1ccc(S(=O)(=O)Nc2ccc(NC(=O)N[C@H](Cc3ccccc3)C(=O)NC(C)(C)C34CC5CC(CC(C5)C3)C4)cc2)cc1` [Compound 61]: the EC50 is 15 nM and the “GLP-1 receptor action enhancing activity (vs BETP)” value is recorded as 1710.

As for `CCCCCCNC(=O)[C@@H](Cc1c[nH]c2ccccc12)NC(=O)Nc1ccc(NS(=O)(=O)c2ccc(C)cc2)cc1` [Compound 21], the EC50 was found to be 470 nM and the “GLP-1 receptor action enhancing activity (vs BETP)” value is 53.

`CCCCC(CC)CNC(=O)[C@H](Cc1c[nH]c2ccccc12)NC(=O)Nc1ccc(NS(=O)(=O)c2ccc(C(C)(C)C)cc2)cc1` (some centres unmarked) [Compound 49]: the EC50 is 10 nM and the “GLP-1 receptor action enhancing activity (vs BETP)” value is given as 2534.

As for `COCCCNC(=O)[C@@H](CC1CCCCC1)NC(=O)Nc1ccc(NS(=O)(=O)c2ccc(C(C)(C)C)cc2)cc1` [Compound 107], the EC50 worked out at 720 nM and the “GLP-1 receptor action enhancing activity (vs BETP)” value was determined as 35.

With `CCCCCCN(C)C(=O)[C@@H](Cc1ccccc1)NC(=O)Nc1ccc(NS(=O)(=O)c2ccc(C)cc2)cc1` [Compound 53], the EC50 came to 280 nM and the “GLP-1 receptor action enhancing activity (vs BETP)” value came to 91.

Regarding `Cc1ccc(S(=O)(=O)Nc2ccc(NC(=O)N[C@H](CC3CCCCC3)C(=O)NCCC3CCCCC3)cc2)cc1` [Compound 45], the EC50 stood at 22 nM and the “GLP-1 receptor action enhancing activity (vs BETP)” value turned out to be 1149.

Turning to `CCCCCNC(=O)[C@@H](Cc1ccccc1)NC(=O)Nc1ccc(NS(=O)(=O)c2ccc(C)cc2)cc1` [Compound 35], the EC50 was determined as 660 nM and the “GLP-1 receptor action enhancing activity (vs BETP)” value is 38.

As for `CCCCCCNC(=O)[C@@H](Cc1ccc(F)cc1)NC(=O)Nc1ccc(NS(=O)(=O)c2ccc(C)cc2)cc1` [Compound 17], the concentration for a half-maximal effect (EC50) is 520 nM and the “GLP-1 receptor action enhancing activity (vs BETP)” value is recorded as 48.

Turning to `CCCCCCCCNC(=O)[C@H](CC1CCCCC1)NC(=O)Nc1ccc(NS(=O)(=O)c2ccc(C(C)(C)C)cc2)cc1` [Compound 57], the EC50 came to 3.4 nM and the “GLP-1 receptor action enhancing activity (vs BETP)” value came out at 7462.

In the case of `Cc1ccc(S(=O)(=O)Nc2ccc(NC(=O)N[C@H](Cc3ccccc3)C(=O)OC(C)(C)C)cc2)cc1` [Compound 62, tert-butyl (2R)-3-phenyl-2-{[4-(p-tolylsulfonylamino)phenyl]carbamoylamino}propanoate], the EC50 is 930 nM and the “GLP-1 receptor action enhancing activity (vs BETP)” value is reported as 27.

Regarding `Cc1ccc(S(=O)(=O)Nc2ccc(NC(=O)N[C@H](CC(C)C)C(=O)NC3CCCCCC3)cc2)cc1` [Compound 44], the EC50 was determined as 1300 nM and the “GLP-1 receptor action enhancing activity (vs BETP)” value turned out to be 19.

For the compound `CCc1ccc(S(=O)(=O)Nc2ccc(NC(=O)N[C@@H](Cc3ccccc3)C(=O)OC(C)(C)C)cc2)cc1` [Compound 75], the EC50 turned out to be 620 nM and the “GLP-1 receptor action enhancing activity (vs BETP)” value is given as 41.

`Cc1ccc(S(=O)(=O)Nc2ccc(NC(=O)N[C@H](Cc3ccccc3)C(=O)NCC3CCCCC3)cc2)cc1` [Compound 8]: the EC50 was 500 nM and the “GLP-1 receptor action enhancing activity (vs BETP)” value is on record as 50.

`CCCOc1ccc(-c2noc([C@H](Cc3ccccc3)NC(=O)Nc3ccc(NS(=O)(=O)c4ccc(C)cc4)cc3)n2)cc1` [Compound 69]: the EC50 was found to be 24 nM and the “GLP-1 receptor action enhancing activity (vs BETP)” value amounted to 1068.

In the case of `Cc1ccc(S(=O)(=O)Nc2ccc(NC(=O)N[C@H](Cc3ccccc3)C(=O)NCc3cccs3)cc2)cc1` [Compound 12], the EC50 came out at 540 nM and the “GLP-1 receptor action enhancing activity (vs BETP)” value came to 47.

`CCCCCCNc1ccc(S(=O)(=O)Nc2cccc(NC(=O)N[C@H](CC3CCCCC3)C(=O)NC(C)CCCC(C)C)c2)cn1` (some centres unmarked) [Compound 109]: the EC50 was determined as 11 nM and the “GLP-1 receptor action enhancing activity (vs BETP)” value is given as 2311.

Take `CC(C)CCCC(C)NC(=O)[C@@H](Cc1ccncc1)NC(=O)Nc1ccc(NS(=O)(=O)c2ccc(C(C)(C)C)cc2)cc1` (some centres unmarked) [Compound 106]: the EC50 is 390 nM and the “GLP-1 receptor action enhancing activity (vs BETP)” value came to 64.

With `CCCCCCCNC(=O)[C@@H](Cc1ccccc1)NC(=O)Nc1ccc(NS(=O)(=O)c2ccc(C)cc2)cc1` [Compound 6], the EC50 came out at 130 nM and the “GLP-1 receptor action enhancing activity (vs BETP)” value came out at 187.

Regarding `CCCCCCNC(=O)[C@@H](Cc1ccc(Cl)cc1)NC(=O)Nc1ccc(NS(=O)(=O)c2ccc(C)cc2)cc1` [Compound 19], the EC50 stood at 160 nM.

Consider `Cc1ccc(S(=O)(=O)Nc2ccc(NC(=O)N[C@H](Cc3ccccc3)C(=O)NC3CCCCCCC3)cc2)cc1` [Compound 52], for which the EC50 turned out to be 170 nM and the “GLP-1 receptor action enhancing activity (vs BETP)” value was found to be 144.

With `CCCCC(CC)CNC(=O)[C@@H](CC1CCCCC1)NC(=O)N(CC(=O)O)c1ccc(NS(=O)(=O)c2ccc(C(C)(C)C)cc2)cc1` (some centres unmarked) [Compound 101], the EC50 stood at 20 nM and the “GLP-1 receptor action enhancing activity (vs BETP)” value was determined as 1272.

As for `CCCCCCNC(=O)[C@@H](CC1CCCCC1)NC(=O)Nc1ccc(NS(=O)(=O)c2ccc(C)cc2)cc1` [Compound 18], the EC50 turned out to be 360 nM and the “GLP-1 receptor action enhancing activity (vs BETP)” value turned out to be 71.

Take `CCCCCCNC(=O)[C@@H](CCSC)NC(=O)Nc1ccc(NS(=O)(=O)c2ccc(C)cc2)cc1` [Compound 20]: the EC50 is 1500 nM and the “GLP-1 receptor action enhancing activity (vs BETP)” value is 17.

`CCCc1ccc(S(=O)(=O)Nc2ccc(NC(=O)N[C@@H](Cc3ccccc3)C(=O)OC(C)(C)C)cc2)cc1` [Compound 71]: the EC50 amounted to 400 nM and the “GLP-1 receptor action enhancing activity (vs BETP)” value is on record as 64.

Take `CC(C)(C)c1ccc(S(=O)(=O)Nc2ccc(NC(=O)N[C@H](CC3CCCCC3)c3nc(C(C)(C)C)no3)cc2)cc1` [Compound 82]: the EC50 was 16 nM and the “GLP-1 receptor action enhancing activity (vs BETP)” value amounted to 1606.

For the compound `Cc1ccc(S(=O)(=O)Nc2ccc(NC(=O)N[C@H](Cc3ccccc3)C(=O)OC(C)(C)C)cc2F)cc1` [Compound 87, tert-butyl (2R)-2-{[3-fluoro-4-(p-tolylsulfonylamino)phenyl]carbamoylamino}-3-phenyl-propanoate], the 50% effective concentration (EC50) is 1100 nM and the “GLP-1 receptor action enhancing activity (vs BETP)” value worked out at 23.

`Cc1ccc(S(=O)(=O)Nc2ccc(NC(=O)N[C@H](CC(C)C)C(=O)NCCC3CCCCC3)cc2)cc1` [Compound 48]: the EC50 amounted to 280 nM and the “GLP-1 receptor action enhancing activity (vs BETP)” value amounted to 92.

As for `CCCCCCNc1ccc(S(=O)(=O)Nc2cccc(NC(=O)N[C@H](Cc3c[nH]c4ccccc34)C(=O)NC(C)CCCC(C)C)c2)cn1` (some centres unmarked) [Compound 110], the EC50 was found to be 4.4 nM and the “GLP-1 receptor action enhancing activity (vs BETP)” value is 5731.

As for `Cc1ccc(S(=O)(=O)Nc2ccc(NC(=O)N[C@H](Cc3ccccc3)C(=O)NCc3ccc(C)o3)cc2)cc1` [Compound 32], the EC50 was 820 nM and the “GLP-1 receptor action enhancing activity (vs BETP)” value was found to be 31.

Turning to `CCCCC(CC)CNC(=O)[C@@H](Cc1c[nH]c2ccccc12)NC(=O)Nc1ccc(NS(=O)(=O)c2ccc(C)cc2)cc1` (some centres unmarked) [Compound 40], the EC50 was 130 nM and the “GLP-1 receptor action enhancing activity (vs BETP)” value was determined as 199.

Regarding `Cc1ccc(S(=O)(=O)Nc2ccc(NC(=O)N[C@H](CC(C)C)C(=O)NCCc3cccs3)cc2)cc1` [Compound 28], the EC50 worked out at 1800 nM and the “GLP-1 receptor action enhancing activity (vs BETP)” value was 14.

`Cc1ccc(S(=O)(=O)Nc2ccc(NC(=O)N[C@H](CC(C)C)C(=O)NCC3CCCCC3)cc2)cc1` [Compound 29]: the EC50 came to 940 nM and the “GLP-1 receptor action enhancing activity (vs BETP)” value was 27.

In the case of `CCCCC(CC)CNC(=O)[C@@H](CC1CCCCC1)NC(=O)Nc1ccc(N(CCCSC)S(=O)(=O)c2ccc(C(C)(C)C)cc2)cc1` (some centres unmarked) [Compound 111], the EC50 was 3.3 nM and the “GLP-1 receptor action enhancing activity (vs BETP)” value is recorded as 7694.

Regarding `Cc1ccc(S(=O)(=O)Nc2ccc(NC(=O)N[C@@H](Cc3ccc(OC(C)(C)C)cc3)C(=O)OC(C)(C)C)cc2)cc1` [Compound 66], the EC50 worked out at 740 nM and the “GLP-1 receptor action enhancing activity (vs BETP)” value was 34.

One may read the EC50 as the midpoint of the concentration-response curve.
